Tests used:
orthotopic BP tumors = assay: BP (Brca1−/− Trp53−/−) orthotopic tumor growth in FVB mice; format: in vivo, mouse
Procedure: Primary mammary tumor cells for orthotopic injection were resuspended in serum-free DMEM containing 40% matrigel (Corning). […] Tumor growth was examined by measuring the greatest longitudinal diameter (length) and the greatest transverse diameter (width) with digital calipers, and tumor volume was calculated by use of the modified ellipsoid formula (0.52×length×width2). Tumors were measured 2-3 times a week. All tumor measurements within single cohorts were performed by the same researcher. Tumor-bearing mice were randomized prior to start of treatment. Drug treatments were started when mean tumor volumes approximated 50-100 mm3. Mice were euthanized by CO2 inhalation when tumor volumes met humane endpoints described in the IACUC (20 mm diameter) protocols or upon severe health deterioration.
For intratumoral injection (i.t.), 250 μg DMXAA (approximately 10 mg/kg body weight) was administered once per week for 3 doses. For i.p. injections, DMXAA was administered at a dose of 10 mg/kg body weight once weekly and terminated if tumor size exceeded 600 mm3. […] Anti-mouse CSF1R antibody (CS7, Eli Lilly) was dosed at 40 mg/kg via i.p. every 3 days.

BP tumor cells = assay: DNA damage in BP tumor cells (cytosolic dsDNA staining, γ-H2AX flow cytometry); format: cell-based, mouse
Procedure: For flow cytometry analyses of tumor and TDLN samples, single-cell suspensions were obtained as described above (Tissue Digestion). Cells were stained in cold FACS buffer (PBS containing 0.2% BSA and 5 mM EDTA) with LIVE/DEAD Fixable Aqua Dead Cell Stain (Thermo Fisher) for 30 min on ice, followed by blocking with anti-CD16/32 (BioLegend) for 20 min on ice. Cells were then incubated in FACS buffer for 30 min on ice with antibodies specific to CD45 (clone 30-F11, BioLegend), TCR β chain (clone H57-597, BioLegend), CD38 (clone 145-2C11, BioLegend), CD4 (clone RM4-5, BioLegend), CD8a (clone 53-6.7, BioLegend), PD-1 (clone 29F.1A12, BioLegend), CD44 (clone IM7, BioLegend), CD62L (clone MEL-14, BioLegend), IFN-γ (clone XMG1.2, BioLegend), TNF-α (clone MP6-XT22, BioLegend), Granzyme B (clone NGZB, eBioscience), CD11c (clone N418, BioLegend), I-A/I-E (clone M5/114.15.2, BioLegend), CD80 (clone 16-10A1, BioLegend), CD86 (clone GL-1, BioLegend), CD103 (clone 2E7, BioLegend), CD11b (M1/70, BioLegend), F4/80 (clone BM8, BioLegend), phospho-TBK1 (Ser172) (clone D52C2, Cell Signaling Tech.) or phospho-IRF-3 (Ser396) (clone D601M, Cell Signaling Tech.). For intracellular staining, Foxp3/Transcription Factor Staining Buffer Set (eBioscience, #00-5523-00) was used for fixation and permeabilization. For cytokine analysis, cells were stimulated with Leukocyte Activation Cocktail with protein transport inhibitor Brefeldin A (BD Biosciences, #550583) at 37° C. for 4 hours prior to the staining. Analysis of ϵ-HA2X (Ser139) was performed according to manufacturer's instructions. Briefly, ice-cold 70% ethanol (Decon) was added dropwise to the cell pellet while vortexing. Cells were then incubated at −20° C. for 1 hour and washed three times with cold staining buffer. […] All data were analyzed using FlowJo software.
BRCA1-deficient tumor cells were cultured on glass coverslips in 6-well plates. […] Fluorescence intensity of cytosolic dsDNA were analyzed using ImageJ/Fiji software as described in Pantelidou C, et al. Cancer Discov 2019; 9 (6): 722-37.

[1] = olaparib 50 mg/kg i.p. q.d., DMXAA 10 mg/kg intratumoral once per week, 3 doses, start around 100 mm3, FIG. 9A

Cc1ccc2c(=O)c3cccc(CC(=O)O)c3oc2c1C [DMXAA, 5,6-dimethyl-xanthenone-4-acetic acid]
BP tumor growth (orthotopic BP tumors; [1]): modest tumor growth inhibition
BP cells' DNA damage (gH2AX) in response to olaparib (BP tumor cells; BP cells treated with CM of DMXAA-pre-treated TEMs, FIG. 7I): restored

O=C(c1cc(Cc2n[nH]c(=O)c3ccccc23)ccc1F)N1CCN(C(=O)C2CC2)CC1 [olaparib]
BP tumor growth (orthotopic BP tumors; olaparib 50 mg/kg i.p. daily, FIG. 1C): modest
BP tumor growth (orthotopic BP tumors; [1]): modest tumor growth inhibition
cytosolic dsDNA (BP tumor cells; 5 μM olaparib, two days, FIG. 5B): induced accumulation of cytosolic dsDNAs
γ-H2AX (BP tumor cells; olaparib, FIG. 5C): two-fold increase

From patent US20250009743A1, “METHODS OF TREATING CANCERS USING STING AGONISTS” (Dana-Farber Cancer Institute, Inc., priority 2021, published 2025)
